pIC50: −log10 of the molar value.
Assays:
OAW-42 = assay: cells; format: functional, cell-based, Homo sapiens;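 also: growth inhibition of OAW-42 cells, read out with a cell viability assay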
Description: SANGER: Inhibition of human OAW-42 cell growth in a cell viability assay.

UMC-11 = assay: cells; format: functional, cell-based, Homo sapiens;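 also: growth inhibition of UMC-11 cells, read out with a cell viability assay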
Description: SANGER: Inhibition of human UMC-11 cell growth in a cell viability assay.

P31-FUJ = assay: cells; format: functional, cell-based, Homo sapiens;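 also: growth inhibition of P31-FUJ cells, read out with a viability assay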
Description: SANGER: Inhibition of human P31-FUJ cell growth in a cell viability assay.

SNU-387 = assay: cells; format: functional, cell-based, Homo sapiens
Description: SANGER: Inhibition of human SNU-387 cell growth in a cell viability assay.

K052 = assay: cells; format: functional, cell-based, Homo sapiens;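 also: Read-out from a cell viability assay, IC50 reflecting suppression of K052 cell growth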
Description: SANGER: Inhibition of human K052 cell growth in a cell viability assay.

VM-CUB-1 = assay: cells; format: functional, cell-based, Homo sapiens;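 also: cell viability assay measuring growth inhibition of the human VM-CUB-1 cell line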
Description: SANGER: Inhibition of human VM-CUB-1 cell growth in a cell viability assay.

PANC-08-13 = assay: cells; format: functional, cell-based, Homo sapiens
Description: SANGER: Inhibition of human PANC-08-13 cell growth in a cell viability assay.

MDA-MB-231 = assay: cells; format: functional, cell-based, Homo sapiens
Description: SANGER: Inhibition of human MDA-MB-231 cell growth in a cell viability assay.

NCI-H1993 = assay: cells; format: functional, cell-based, Homo sapiens;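 also: growth inhibition of the cancer cell line, assessed with a cell viability assay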
Description: SANGER: Inhibition of human NCI-H1993 cell growth in a cell viability assay.

UACC-893 = assay: cells; format: functional, cell-based, Homo sapiens
Description: SANGER: Inhibition of human UACC-893 cell growth in a cell viability assay.

SW1783 = assay: cells; format: functional, cell-based, Homo sapiens
Description: SANGER: Inhibition of human SW1783 cell growth in a cell viability assay.

SW756 = assay: cells; format: functional, cell-based, Homo sapiens;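 also: growth inhibition of human SW756 cells, read out with a cell viability assay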
Description: SANGER: Inhibition of human SW756 cell growth in a cell viability assay.

CPC-N = assay: cells; format: functional, cell-based, Homo sapiens;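 also: growth inhibition of CPC-N cells, with a cell viability assay as the readout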
Description: SANGER: Inhibition of human CPC-N cell growth in a cell viability assay.

SF-295 = assay: cells; format: functional, cell-based, Homo sapiens;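 also: growth inhibition of SF-295 cells, read out with a cell viability assay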
Description: SANGER: Inhibition of human SF295 cell growth in a cell viability assay.

CP50-MEL-B = assay: cells; format: functional, cell-based, Homo sapiens;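 also: growth inhibition of the human cell line, measured with a cell viability read-out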
Description: SANGER: Inhibition of human CP50-MEL-B cell growth in a cell viability assay.

CAL-12T = assay: cells; format: functional, cell-based, Homo sapiens;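 also: growth inhibition of human CAL-12T cells, read out with a cell viability assay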
Description: SANGER: Inhibition of human CAL-12T cell growth in a cell viability assay.

U2OS = assay: cells; format: functional, cell-based, Homo sapiens, U-2-OS;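 also: growth inhibition of human U-2-OS cells, determined with a cell viability assay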
Description: SANGER: Inhibition of human U-2-OS cell growth in a cell viability assay.

OVCAR-8 = assay: cells; format: functional, cell-based, Homo sapiens;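 also: growth inhibition of human OVCAR-8 cells, read out by a cell viability assay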
Description: SANGER: Inhibition of human OVCAR-8 cell growth in a cell viability assay.

NCI-H64 = assay: cells; format: functional, cell-based, Homo sapiens;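 also: growth inhibition of NCI-H64 cells, read out with a cell viability assay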
Description: SANGER: Inhibition of human NCI-H64 cell growth in a cell viability assay.

EB-3 = assay: cells; format: functional, cell-based, Homo sapiens;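 also: human EB-3 cells, growth inhibition read out via a cell viability assay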
Description: SANGER: Inhibition of human EB-3 cell growth in a cell viability assay.

NCI-H1651 = assay: cells; format: functional, cell-based, Homo sapiens;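 also: Read-out is a cell viability assay, with IC50 expressing inhibition of NCI-H1651 cell growth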
Description: SANGER: Inhibition of human NCI-H1651 cell growth in a cell viability assay.

T98G = assay: cells; format: functional, cell-based, Homo sapiens;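 also: growth inhibition of T98G cells, read out by a cell viability assay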
Description: SANGER: Inhibition of human T98G cell growth in a cell viability assay.

COR-L23 = assay: cells; format: functional, cell-based, Homo sapiens;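 also: cell viability assay measuring how strongly compounds suppress growth of COR-L23 cells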
Description: SANGER: Inhibition of human COR-L23 cell growth in a cell viability assay.

MC-CAR = assay: cells; format: functional, cell-based, Homo sapiens;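 also: growth inhibition of the human MC-CAR cell line, read out by a cell viability assay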
Description: SANGER: Inhibition of human MC-CAR cell growth in a cell viability assay.

ASPC1 = assay: cells; format: functional, cell-based, Homo sapiens;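 also: growth inhibition of AsPC-1 cells, read out with a cell viability assay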
Description: SANGER: Inhibition of human AsPC-1 cell growth in a cell viability assay.

NCI-H719 = assay: cells; format: functional, cell-based, Homo sapiens;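 also: growth inhibition of the cultured cell line, read out with a viability assay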
Description: SANGER: Inhibition of human NCI-H719 cell growth in a cell viability assay.

NCI-H2342 = assay: cells; format: functional, cell-based, Homo sapiens;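 also: growth inhibition of the cancer cell line, determined with a cell viability assay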
Description: SANGER: Inhibition of human NCI-H2342 cell growth in a cell viability assay.

SK-MM-2 = assay: cells; format: functional, cell-based, Homo sapiens;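 also: growth inhibition of human SK-MM-2 cells, read out with a cell viability assay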
Description: SANGER: Inhibition of human SK-MM-2 cell growth in a cell viability assay.

NCI-H187 = assay: cells; format: functional, cell-based, Homo sapiens;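 also: growth inhibition of NCI-H187 cells, read out as cell viability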
Description: SANGER: Inhibition of human NCI-H187 cell growth in a cell viability assay.

SW48 = assay: cells; format: functional, cell-based, Homo sapiens;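 also: growth inhibition of SW48 cells, read out with a cell viability assay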
Description: SANGER: Inhibition of human SW48 cell growth in a cell viability assay.

Ca-Ski = assay: cells; format: functional, cell-based, Homo sapiens;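 also: cell viability assay measuring inhibition of Ca-Ski cell growth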
Description: SANGER: Inhibition of human Ca-Ski cell growth in a cell viability assay.

A204 = assay: cells; format: functional, cell-based, Homo sapiens;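 also: growth inhibition of human A204 cells, read out with a cell viability assay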
Description: SANGER: Inhibition of human A204 cell growth in a cell viability assay.

NCI-H1573 = assay: cells; format: functional, cell-based, Homo sapiens;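 also: growth inhibition of NCI-H1573 cells, read out with a cell viability assay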
Description: SANGER: Inhibition of human NCI-H1573 cell growth in a cell viability assay.

BPH-1 = assay: cells; format: functional, cell-based, Homo sapiens;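 also: cell viability assay measuring growth inhibition of human BPH-1 cells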
Description: SANGER: Inhibition of human BPH-1 cell growth in a cell viability assay.

HuO-3N1 = assay: cells; format: functional, cell-based, Homo sapiens;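 also: cell viability readout used to measure how strongly compounds suppress proliferation of human HuO-3N1 cells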
Description: SANGER: Inhibition of human HuO-3N1 cell growth in a cell viability assay.

NCCIT = assay: SANGER: Inhibition of human NCCIT cell growth in a cell viability assay.; format: functional, cell-based
SKG-IIIa = assay: cells; format: functional, cell-based, Homo sapiens;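 also: cell growth inhibition, read out with a cell viability assay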
Description: SANGER: Inhibition of human SKG-IIIa cell growth in a cell viability assay.

TUR = assay: cells; format: functional, cell-based, Homo sapiens;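 also: growth inhibition of human TUR cells, read out with a cell viability assay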
Description: SANGER: Inhibition of human TUR cell growth in a cell viability assay.

NCI-H322M = assay: cells; format: functional, cell-based, Homo sapiens;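 also: cell viability assay measuring inhibition of growth of human NCI-H322M cells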
Description: SANGER: Inhibition of human NCI-H322M cell growth in a cell viability assay.

SK-HEP1 = assay: cells; format: functional, cell-based, Homo sapiens, SK-HEP-1;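 also: cell viability readout used to quantify reduction in proliferation of human SK-HEP-1 cells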
Description: SANGER: Inhibition of human SK-HEP-1 cell growth in a cell viability assay.

MDA-MB-157 = assay: cells; format: functional, cell-based, Homo sapiens
Description: SANGER: Inhibition of human MDA-MB-157 cell growth in a cell viability assay.

G-402 = assay: cells; format: functional, cell-based, Homo sapiens
Description: SANGER: Inhibition of human G-402 cell growth in a cell viability assay.

DMS-153 = assay: cells; format: functional, cell-based, Homo sapiens
Description: SANGER: Inhibition of human DMS-153 cell growth in a cell viability assay.

MFE-280 = assay: cells; format: functional, cell-based, Homo sapiens;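 also: growth inhibition of MFE-280 cells, determined with a cell viability readout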
Description: SANGER: Inhibition of human MFE-280 cell growth in a cell viability assay.

SiHa = assay: cells; format: functional, cell-based, Homo sapiens;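 also: Viability-based readout of growth inhibition in SiHa cells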
Description: SANGER: Inhibition of human SiHa cell growth in a cell viability assay.

What does the source list for `O=C(O)c1ccc(-c2c[nH]c3ncc(-c4ccccc4)cc23)cc1C1CCCC1` [GSK-650394]?
pIC50 (OAW-42; Homo sapiens, OAW-42): < 4.80; pIC50 (UMC-11; Homo sapiens, UMC-11): < 4.80; pIC50 (P31-FUJ; Homo sapiens, P31-FUJ): < 4.80; pIC50 (SNU-387; Homo sapiens, SNU-387): < 4.80; pIC50 (K052; Homo sapiens, K052): < 4.80; pIC50 (VM-CUB-1; Homo sapiens, VM-CUB-1): < 4.80; pIC50 (PANC-08-13; Homo sapiens, PANC-08-13): < 4.80; pIC50 (MDA-MB-231; Homo sapiens, MDA-MB-231): < 4.80; pIC50 (NCI-H1993; Homo sapiens, NCI-H1993): < 4.80; pIC50 (UACC-893; Homo sapiens, UACC-893): < 4.80; pIC50 (SW1783; Homo sapiens, SW1783): < 4.80; pIC50 (SW756; Homo sapiens, SW756): < 4.80; pIC50 (CPC-N; Homo sapiens, CPC-N): 4.99; pIC50 (SF-295; Homo sapiens, SF-295): 5.12; pIC50 (CP50-MEL-B; Homo sapiens, CP50-MEL-B): < 4.80; pIC50 (CAL-12T; Homo sapiens, CAL-12T): 5.57; pIC50 (U2OS; Homo sapiens, U2OS): < 4.80; pIC50 (OVCAR-8; Homo sapiens, OVCAR-8): 4.95; pIC50 (NCI-H64; Homo sapiens, NCI-H64): < 4.80; pIC50 (EB-3; Homo sapiens, EB-3): < 4.80; pIC50 (NCI-H1651; Homo sapiens, NCI-H1651): < 4.80; pIC50 (T98G; Homo sapiens, T98G): < 4.80; pIC50 (COR-L23; Homo sapiens, COR-L23): 5.32; pIC50 (MC-CAR; Homo sapiens, MC-CAR): < 4.80; pIC50 (ASPC1; Homo sapiens, ASPC1): < 4.80; pIC50 (NCI-H719; Homo sapiens, NCI-H719): < 4.80; pIC50 (NCI-H2342; Homo sapiens, NCI-H2342): 5.66; pIC50 (SK-MM-2; Homo sapiens, SK-MM-2): < 4.80; pIC50 (NCI-H187; Homo sapiens, NCI-H187): < 4.80; pIC50 (SW48; Homo sapiens, SW48): < 4.80; pIC50 (Ca-Ski; Homo sapiens, Ca-Ski): < 4.80; pIC50 (A204; Homo sapiens, A204): < 4.80; pIC50 (NCI-H1573; Homo sapiens, NCI-H1573): < 4.80; pIC50 (BPH-1; Homo sapiens, BPH-1): < 4.80; pIC50 (HuO-3N1; Homo sapiens, HuO-3N1): < 4.80; pIC50 (NCCIT; Homo sapiens, NCCIT): < 4.80; pIC50 (SKG-IIIa; Homo sapiens, SKG-IIIa): < 4.80; pIC50 (TUR; Homo sapiens, TUR): 5.33; pIC50 (NCI-H322M; Homo sapiens, NCI-H322M): < 4.80; pIC50 (SK-HEP1; Homo sapiens, SK-HEP1): 5.20; pIC50 (MDA-MB-157; Homo sapiens, MDA-MB-157): < 4.80; pIC50 (G-402; Homo sapiens, G-402): 5.04; pIC50 (DMS-153; Homo sapiens, DMS-153): < 4.80; pIC50 (MFE-280; Homo sapiens, MFE-280): < 4.80; pIC50 (SiHa; Homo sapiens, SiHa): < 4.80

BLEOMYCIN was tested. Which pIC50 (OAW-42; oaw-42) did it give?
The pIC50 was 6.08.

What about the pIC50 (UMC-11; umc-11) of the same compound?
The pIC50 was 2.63.

What about the pIC50 (P31-FUJ; p31-fuj) of the same compound?
The pIC50 was 3.34.

And the pIC50 (SNU-387; snu-387)?
The pIC50 was 6.03.

And the pIC50 (K052; k052)?
The pIC50 was 3.32.

What about the pIC50 (VM-CUB-1; vm-cub-1) of the same compound?
The pIC50 was 5.31.

What about the pIC50 (PANC-08-13; panc-08-13) of the same compound?
Its pIC50 is 4.92.

And the pIC50 (MDA-MB-231; mda-mb-231)?
Its pIC50 is 6.56.

What about the pIC50 (NCI-H1993; nci-h1993) of the same compound?
Its pIC50 is 3.19.

And the pIC50 (UACC-893; uacc-893)?
The pIC50 was 3.89.

What about the pIC50 (SW1783; sw1783) of the same compound?
The pIC50 was 6.60.

And the pIC50 (SW756; sw756)?
The pIC50 was 4.94.

What about the pIC50 (CPC-N; cpc-n) of the same compound?
The pIC50 was 4.28.

What about the pIC50 (SF-295; sf-295) of the same compound?
Its pIC50 is 7.67.

And the pIC50 (CP50-MEL-B; cp50-mel-b)?
The pIC50 was 2.40.

And the pIC50 (CAL-12T; cal-12t)?
The pIC50 was 6.59.

What about the pIC50 (U2OS; u-2-os) of the same compound?
The pIC50 was 3.58.

What about the pIC50 (OVCAR-8; ovcar-8) of the same compound?
The pIC50 was 9.32.

And the pIC50 (NCI-H64; nci-h64)?
The pIC50 was 6.19.

What about the pIC50 (EB-3; eb-3) of the same compound?
Its pIC50 is 4.66.

And the pIC50 (NCI-H1651; nci-h1651)?
The pIC50 was 6.30.

And the pIC50 (T98G; t98g)?
The pIC50 was 4.20.

And the pIC50 (COR-L23; cor-l23)?
The pIC50 was 7.12.

What about the pIC50 (MC-CAR; mc-car) of the same compound?
The pIC50 was 5.85.

And the pIC50 (ASPC1; aspc1)?
The pIC50 was 4.08.

And the pIC50 (NCI-H719; nci-h719)?
The pIC50 was 3.53.

What about the pIC50 (NCI-H2342; nci-h2342) of the same compound?
Its pIC50 is 7.86.

And the pIC50 (SK-MM-2; sk-mm-2)?
Its pIC50 is 4.63.

And the pIC50 (NCI-H187; nci-h187)?
Its pIC50 is 2.06.

What about the pIC50 (SW48; sw48) of the same compound?
The pIC50 was 6.26.

What about the pIC50 (Ca-Ski; ca-ski) of the same compound?
The pIC50 was 6.10.

What about the pIC50 (A204; a204) of the same compound?
Its pIC50 is 6.70.

What about the pIC50 (NCI-H1573; nci-h1573) of the same compound?
Its pIC50 is 3.57.

And the pIC50 (BPH-1; bph-1)?
The pIC50 was 7.23.

And the pIC50 (HuO-3N1; huo-3n1)?
Its pIC50 is 4.06.

And the pIC50 (NCCIT; nccit)?
The pIC50 was 5.97.

And the pIC50 (SKG-IIIa; skg-iiia)?
The pIC50 was 3.86.

And the pIC50 (TUR; tur)?
The pIC50 was 4.72.

And the pIC50 (NCI-H322M; nci-h322m)?
Its pIC50 is 2.14.

What about the pIC50 (SK-HEP1; sk-hep-1) of the same compound?
Its pIC50 is 6.38.

What about the pIC50 (MDA-MB-157; mda-mb-157) of the same compound?
Its pIC50 is 3.51.

And the pIC50 (G-402; g-402)?
The pIC50 was 7.12.

What about the pIC50 (DMS-153; dms-153) of the same compound?
The pIC50 was 3.78.

And the pIC50 (MFE-280; mfe-280)?
Its pIC50 is 3.44.

And the pIC50 (SiHa; siha)?
The pIC50 was 2.29.
